What was measured:
HO1 protein = HO1 protein induction in RAW 264.7 cells (Western blot); assay type: cell-based; design: key to Intensity of Bands of HO1 Protein: those showing no bands are indicated by “−,”; the intensities of the bands are indicated by +−, +, ++ in the ascending order of the intensities of the bands; the intensities of the bands are indicated by +−, +, ++ in the ascending order of the intensities of the bands; the intensities of the bands are indicated by +−, +, ++ in the ascending order of the intensities of the bands; conditions: for induction action for HO production (band ascribed to HO1 protein): 15 hours, DGE at 10 to 40 μM
Method: RAW 264.7 cells (ATCC TIB 71) were suspended in a Dulbecco's modified Eagle's medium (manufactured by Bio Whittaker; 12-604F) containing 10% fetal bovine serum (manufactured by Gibco), so as to have a concentration of 3×10^5 cells/ml. The cell suspension was added to each well of a 6-well microtiter plate in a volume of 5 ml each. The cells were cultured at 37° C. in the presence of 5% CO2 gas overnight. To each well was added 50 μl of 4 mM, 2 mM or 1 mM DGE aqueous solution (each of final concentrations: 40 μM, 20 μM or 10 μM), and the cells were cultured for 15 hours. […] The cells were harvested by peeling off the cells from the plate with a scraper. The harvested cells were suspended in 0.1 M Tris-HCl buffer (pH 7.5) containing 0.05 mM pepstatin (manufactured by Sigma, P5318), 0.2 mM leupeptin (manufactured by Sigma, L2884), 1 mM phenylmethylsulfonyl fluoride (manufactured by nakalai tesque, 273-27), 10 mM disodium dihydrogenethylenediaminetetraacetate and 0.1% Triton X-100, and subjected to freezing and thawing once. Thereafter, the supernatant obtained by centrifugation was used as a protein fraction. The protein content in the protein fraction was assayed by Micro BCA Protein Assay Reagent (one manufactured by Pierce sold by Takara Shuzo Co., Ltd., P7411). Each of the resulting protein fraction samples was mixed with an equal volume of 0.125 M Tris-HCl buffer (pH 6.8) containing 4% sodium lauryl sulfate (SDS), 2% 2-mercaptoethanol,
0.001% Bromophenol Blue and 20% glycerol, and the mixture was treated at 100° C. for 5 minutes. A mixture containing a protein in an amount of 10 μg or so was loaded on 12.5% SDS-polyacrylamide gel, and electrophoresed with a constant current of 20 mA. In a blotting buffer containing 48 mM Tris, 39 mM glycine, 20% methanol, 0.0375% SDS, the gel after the electrophoresis was transferred to a PDVF membrane (manufactured by Millipore Corporation, IPVHOOO 10) in accordance with the attached protocol, using transblot SD cell semi-drive blotting device (manufactured by BioRad), at a constant voltage of 15 V for 25 minutes. The transferred PVDF membrane was blocked overnight in a Block Ace (manufactured by DAINIPPON PHARMACEUTICAL CO., LTD., UK-B25) solution at 4° C. The blocked membrane was washed for 15 minutes thrice with phosphate-buffered physiological saline containing 0.1% Tween 20 under gentle shaking. Thereafter, the membrane was subjected to the reaction under gentle shaking in phosphate-buffered physiological saline containing 10% Block Ace with a 200 ng/ml anti-HOl antibody (N-19, manufactured by Santa Cruz, sc-7696) and 0.1% Tween 20 at room temperature for 1 hour, and was washed for 15 minutes thrice with phosphate-buffered physiological saline containing 0.1% Tween 20 under gentle shaking. Next, the membrane was subjected to the reaction under gentle shaking in phosphate-buffered physiological saline with 10% Block Ace with 0.1% peroxidase-conjugated rabbit anti-goat IgG (H+L) antibody (manufactured by Zymed, 61-1620) and 0.1% Tween 20 at room temperature for 1 hour, and was washed for 15 minutes five times with phosphate-buffered physiological saline containing 0.1% Tween 20 under gentle shaking. Subsequently, a PVDF membrane was stained by using Western blot Chemiluminescence Reagent Plus (one manufactured by NEN Life Science Products sold by Daiichikagaku, NEL103) in accordance with the attached protocol, and sensitized on an X-ray film (manufactured by Kodak, CAT 1651454). The sensitized film was developed with FPM800 (manufactured by Fuji Photo Film Co., Ltd.).
As a result, there could be confirmed a band ascribed to HO1 protein in the group with addition of DGE. […] In the table, + symbols were given in accordance with the intensity of the band for HO1 protein. In other words, in Table 3, those showing no bands are indicated by “−,” and the intensities of the bands are indicated by +−, +, ++ in the ascending order of the intensities of the bands.

TNFα = experiment: LPS-stimulated TNFα production in monocytes (ELISA); assay type: cell-based; conditions: human monocytes, final concentration 50 μM, 100 μM or 200 μM, 5 hours, then LPS 4 hours
Method: PBMCs were isolated in the same manner as in item (1) of Example 4. PBMCs were suspended in RPMI 1640 medium containing 5% human serum of blood type-AB, 0.1 mM nonessential amino acid, 1 mM sodium pyruvate, 2 mM L-glutamine (hereinabove manufactured by Bio Whittaker), 10 mM HEPES (manufactured by nakalai tesque), and 1% streptomycin-penicillin (manufactured by Gibco BRL) (hereinafter simply referred to as “5HRPMI medium”) so as to have a concentration of 2×10^6 cells/ml. Thereafter, the suspension was spread on a 24-well cell culture plate (manufactured by Falcon) in a volume of 1 ml/well, and the cells were incubated in a wet-type incubator at 37° C. and 5% CO2 for 1.5 hours. After 1.5 hours, the non-adherent cells were removed by suction, and each well was washed with RPMI 1640 medium, and 1 ml of the 5HRPMI medium was added to the wells, to give monocytes.
To the monocytes obtained above was added in each well 10 μl of a 1 mM, 2 mM or 4 mM aqueous DGE solution (each having a final concentration of 10 μM, 20 μM or 40 μM), or a 5 mM, 10 mM or 20 mM aqueous agarobiose solution (each having a final concentration of 50 μM, 100 μM or 200 μM), or 10 μl of water as a control (i.e. each of concentrations of DGE and agarobiose being 0 μM), and the cells were incubated in a wet-type incubator at 37° C. and 5% CO2 for 5 hours. […]

interleukin-10 (IL-10) = experiment: LPS-induced IL-10 production in RAW 264.7 cells (ELISA); assay type: cell-based; conditions: final concentration 20 μM, 5 hours, then LPS 18 hours, IL-10 in culture supernatant by ELISA
Method: RAW 264.7 cells (ATCC TIB 71) were suspended in a Dulbecco's modified Eagle's medium (manufactured by Bio Whittaker; 12-604F) containing 10% fetal bovine serum (manufactured by Gibco), so as to have a concentration of 3×10^5 cells/ml. The cell suspension was added to each well of a 48-well microtiter plate in a volume of 0.5 ml each. The cells were cultured at 37° C. in the presence of 5% CO2 gas overnight. To each well was added 5 μl of a 2 mM DGE aqueous solution (final concentration: 20 μM), and the cells were cultured for additional 5 hours. Thereafter, 5 μl of a 100 μg/ml lipopolysaccharide (LPS, manufactured by Sigma, L-2012) aqueous solution was added thereto, and the cells were cultured for 18 hours, and thereafter the culture supernatant was recovered. The content of the interleukin-10 (IL-10) in the culture supernatant was assayed by the enzyme immuno-sandwich assay. Here, the group with no addition of DGE and LPS aqueous solution (control) was set as a negative control, and the group with addition of LPS aqueous solution (control+LPS) alone was set as a positive control. In addition, all of the assays were carried out twice.

interleukin-6 (IL-6) = experiment: TPA-induced IL-6 production in peritoneal macrophage (ELISA); assay type: cell-based; conditions: mouse peritoneal macrophage, final concentrations 20 μM and 10 μM, 14 hours, IL-6 in culture supernatant by ELISA
Method: Four milliliters of a 10% fetal bovine serum-containing RPMI 1640 medium (manufactured by Bio Whittaker, 12-702F) was intraperitoneally injected to ddy mouse (Nippon SLC, female, 7-weeks old), and the mouse was well massaged, and the medium was taken out to obtain peritoneal cells. The peritoneal cells were suspended in the 10% fetal bovine serum-containing RPMI 1640 medium so as to have a concentration of 10^6 cells/ml, and dispensed into 48-well microtiter plate in a volume of 500 μl each. The peritoneal cells were cultured at 37° C. for 2 hours in the presence of 5% CO2 gas. Thereafter, the culture supernatant was removed to give adherent cells to be used as peritoneal macrophage. To each well was freshly dispensed a Dulbecco's modified Eagle's medium (manufactured by Bio Whittaker; 12-917F) without phenol red containing 10% fetal bovine serum and 2 mM L-glutamine in a volume of 500 μl. […] The content of interleukin-6 (IL-6) in the culture supernatant was assayed by enzyme immuno-sandwich assay (ELISA: Matched antibody Pair SamplePak mouse IL-6, manufactured by Endogen). Here, the group with no addition of DGE and TPA aqueous solution (control) was set as a negative control, and the group with addition of TPA aqueous solution alone (control+TPA) was set as a positive control. In addition, all of the assays were carried out twice.

CCCCC/C=C/C=C1/C(=O)C=C[C@@H]1C/C=C\CCCC(=O)O [15-Deoxy-Δ12,14 prostaglandin J2, reference compound]
Intensity of Bands of HO1 Protein (HO1 protein; 5 μl of 3 mM dimethyl sulfoxide solution added to 5 ml well, positive control): ++

OC[C@H]1O[C@@H](O[C@H]2[C@H]3OC[C@@H]2OC(O)[C@H]3O)[C@H](O)[C@@H](O)[C@H]1O (mixture of isomers) [agarobiose]
inhibition of LPS-stimulated TNFα production (TNFα): inhibition

N[C@@H](CCC(=O)N[C@@H](CSC1CC2(O)OCC1OC2O)C(=O)NCC(=O)O)C(=O)O (stereo partly drawn) [DGE-GSH, 5-L-glutathion-S-yl-2-hydroxy-3,7-dioxabicyclo[2.2.2]octan-1-ol]
inhibition of LPS-induced IL-10 production (interleukin-10 (IL-10)): inhibitory action | inhibition of TPA-induced IL-6 production (interleukin-6 (IL-6)): inhibitory action | induction action for HO production (band ascribed to HO1 protein) (HO1 protein): induction action | inhibitory activity for cancer cell proliferation (HL-60 cells): active

O=C1C=CC(CO)OC1O [κ-DGE, D-Glycero-1,5-epoxy-1αβ,6-dihydroxy-cis-hex-3-en-2-one]
inhibition of LPS-induced IL-10 production (interleukin-10 (IL-10)): inhibitory action | inhibition of TPA-induced IL-6 production (interleukin-6 (IL-6); listed as K-DGE): inhibitory action | induction action for HO production (band ascribed to HO1 protein) (HO1 protein): induction action

Reference: patent US20030158250A1, “Agents correcting gene expression regulatory error” (priority 2000, published 2003)
